Measurements reported in patent US5648382A, “Cyclohexane compounds” (Adir et Compagnie, priority 1995, dated 1997).

The compounds below were run on tumour (assay: Antitumour activity in mice, subcutaneous tumour implant). Settings: 30 mg/kg, i.p., day 1 to day 12; tumour weight on day 13.
Format: in vivo
Procedure: Example C: Antitumour Activity
The antitumour activity of the compounds of the invention was studied in accordance with the protocol described by R. I. Geran et al, Cancer Chemotherapy Reports, (1972), Part 3, pages 3 et seq.
Mice were divided at random into treated groups (11 mice per group) and a control group of 40 mice.
Tumour fragments were implanted on day 0 (subcutaneous implant). The compounds to be tested were administered for 12 days (day 1 to day 12) by the i.p. route.
The average weight of the tumour was determined on day 13 after implantation. The percentage inhibition was calculated in accordance with the following formula: [formula] As an example, the compound of Example 27 gave the following results: […]

Row | SMILES | % inhibition (tumour weight) [%]
1 | O=C(CCl)NC(=O)O[C@@H]1CC[C@]2(CO2)[C@](CCCCCc2ccccc2)(OC(=O)NC(=O)CCl)C1 (relative stereo) [Example 27, (3S*,4R*,6R*)-4,6-Dichloroacetylcarbamoyloxy-4-(5-phenylpentyl)-1-oxa-spiro[2.5]octane] | 56

Same assay, conditions: 60 mg/kg, i.p., day 1 to day 12; tumour weight on day 13

Row | SMILES | % inhibition (tumour weight) [%]
2 | O=C(CCl)NC(=O)O[C@@H]1CC[C@]2(CO2)[C@](CCCCCc2ccccc2)(OC(=O)NC(=O)CCl)C1 (relative stereo) [Example 27, (3S*,4R*,6R*)-4,6-Dichloroacetylcarbamoyloxy-4-(5-phenylpentyl)-1-oxa-spiro[2.5]octane] | 82

The compounds below were run on chicken embryo chorio-allantoic membrane (assay: Inhibition of neovascularization of chicken embryo chorioallantoic membrane). Settings: avascular zone greater than 4 mm in diameter, 48 hours after disk placed on CAM on day 6.
Format: in vivo
Procedure: Example B: Inhibition of Neovascularization of Chicken Embryo Chorioallantoic Membrane
This test was carried out with chicken embryos in the manner described above (Crum R., Szabo S. and Folkman J., Science, (1985), 230, 1375-1378). The fertilized eggs are incubated at 37° C. (D0). A pocket of air is created by removing 1 ml of albumin (D3), then a window is cut from the shell (D4) and the vitelline membrane is removed in order to separate the chorio-allantoic membrane (CAM).
The products to be tested are dissolved in ethanol and placed on methylcellulose disks which are dried and placed on the CAM on day 6. From 8 to 16 eggs are used per group. The zone situated round the disk is then examined 48 hours later. The eggs having an avascular zone greater than 4 mm in diameter are counted and the results are expressed as a percentage of eggs having an avascular zone.

Row | SMILES | % of eggs having an avascular zone [%]
3 | O=C(CCl)NC(=O)O[C@H]1CC[C@]2(CO2)[C@](O)(C2OC2CCCc2ccccc2)[C@H]1Br (single isomer, unassigned) [Example 13] | 70 ± 16
4 | CC(C)CCCC12OC1C(OC(=O)NC(=O)CCl)CCC21CO1 (stereo not drawn) [Example 21, 5-Chloroacetylcarbamoyloxy-2-(2-spiro-oxiranyl)-1-(4-methyl-pentyl)-7-oxabicyclo[4.1.0]heptane] | 76 ± 6
5 | CC1([C@]23O[C@H]2[C@H](OC(=O)NC(=O)CCl)CC[C@]32CO2)CO1 (single isomer, unassigned) [Example 30 Diastereoisomer B, (1R*,2S*,5R*,6S*)-5-Chloroacetylcarbamoyloxy-1-[(2S* and 2R*)-(2-methyloxiran-2-yl)]-2-(2-spiro-oxiranyl)-7-oxabicyclo[4.1.0]heptan] | 68 ± 5
6 | O=C(CCl)NC(=O)O[C@H]1CC[C@]2(CO2)[C@@](CCCCCc2ccccc2)(OC(=O)NC(=O)CCl)C1 (relative stereo) [Example 28, (3S*,4S*6S*)-4,6-Dichloroacetylcarbamoyloxy-4-(5-phenylpentyl)-1-oxa-spiro[2.5]octane] | 90 ± 4
7 | CC1([C@@]23OC(=O)O[C@@H]2[C@H](OC(=O)NC(=O)CCl)CC[C@]32CO2)CO1 (relative stereo) [Example 23, (3S*,4S*,5R*,6R*)-6-Chloroacetylcarbamoyloxy-4-(2-methyl-oxiran-2-yl)-1-oxa-spiro[2.8]benzo[1.3]dioxol-2-one] | 78 ± 7
8 | CC1([C@]23O[C@H]2[C@H](OC(=O)NC(=O)CCl)CC[C@]32CO2)CO1 (single isomer, unassigned) [Example 30 Diastereoisomer A, (1R*,2S*,5R*,6S*)-5-Chloroacetylcarbamoyloxy-1-[(2S* and 2R*)-(2-methyloxiran-2-yl)]-2-(2-spiro-oxiranyl)-7-oxabicyclo[4.1.0]heptan] | 75 ± 7
9 | C[C@@]1(OC(=O)NC(=O)CCl)CC[C@@H](OC(=O)NC(=O)CCl)[C@@H]2O[C@@]21CCCCCc1ccccc1 (relative stereo) [Example 19, (1S*,2R*,5R,*6S*)-2,5-Dichloroacetylcarbamoyloxy-2-methyl-1-(5-phenylpentyl)-7-oxabicyclo[4.1.0]heptane] | 76 ± 9
10 | CC1([C@]23O[C@H]2[C@@H](OC(=O)NC(=O)CCl)CC[C@]32CO2)CO1 (single isomer, unassigned) [Example 17 Diastereoisomer A, (1R*,2S*,5S*,6S*)-5-Chloroacetylcarbamoyloxy-1-[(2S* and 2R*)-(2-methyloxiran-2-yl)]-2-(2-spiro-oxiranyl)-7-oxabicyclo[4.1.0]heptan] | 74 ± 7
11 | C=C(C)[C@]12O[C@H]1[C@H](OC(=O)NC(=O)CCl)CC[C@]21CO1 (relative stereo) [Example 29, (1S*,2S*,5R*,6S*)-5-Chloroacetylcarbamoyloxy-1-isopropenyl-2(2-spiro-oxiranyl)-7-oxabicyclo[4.1.0]heptane] | 66 ± 6
12 | CC1OC1(C)[C@@]1(O)C[C@H](OC(=O)NC(=O)CCl)CC[C@]12CO2 (relative stereo) [Example 7, (3S*; 4R*, 6R*)-6-Chloroacetylcarbamoyloxy-4-hydroxy-4-(2,3-di-methyl-2-oxiranyl)-1-oxa-spiro[2.5]octane] | 81 ± 10
13 | O=C(CCl)NC(=O)O[C@@H]1CC[C@]2(CO2)[C@@](O)(CCCCCc2ccccc2)[C@@H]1Br (relative stereo) [Example 10, (3S*, 4S*, 5R*, 6R*)-5-Bromo-6-chloroacetylcarbamoyloxy-4-hydroxy-4-(5-phenylpentyl)-1-oxa-spiro[2.5]octane] | 73 ± 11
14 | CC1OC1(C)[C@@]1(O)C[C@H](OC(=O)NC(=O)CCl)CC[C@]12CO2 (relative stereo) [Example 6, (3S*, 4R*, 6R*)-6-Chloroacetylcarbamoyloxy-4-hydroxy-4-(2,3-dimethyloxiran-2-yl)-1-oxa-spiro[2.5]octane] | 79 ± 9
15 | O=C(CCl)NC(=O)O[C@@H]1CC[C@]2(CO2)[C@@]2(CCCCCc3ccccc3)O[C@@H]12 (relative stereo) [Example 18, (1S*,2S*,5R*,6S*)-5-Chloroacetylcarbamoyloxy-2-(2-spiro-oxiranyl)-1-(5-phenyl-pentyl)-7-oxabicyclo[4.1.0]heptane] | 69 ± 6
